Values quoted from earlier work as cited in US12121591B2, “Sulfur-containing ionizable lipids for the delivery of nucleic acids and other therapeutic agents” (NanoVation Therapeutics Inc., priority 2022, dated 2024).

Conditions: delivery of siRNA, relative to KC2

SMILES: CCCCC/C=C\C/C=C\CCCCCCCCC(CCCCCCCC/C=C\C/C=C\CCCCC)OC(=O)CCCN(C)C [MC3]
- siRNA required, times less than KC2: about 3 times
